Assays:
[1] = tested on: EBV in Burkitt's lymphoma cell lines (MutuI and BL74); experiment: EBV activation in Burkitt's lymphoma cell lines (VCA western blot); format: cell-based
Experimental: To ensure that equal amounts of each sample were analyzed, the gels were stained with Coomassie blue and the loadings were adjusted to make them equal. […] Next the PEP003 and PEP004 were assayed on two Burkitt's lymphoma cell lines and an LCL. This time only concentrations of 10^−5 and 10^−7 were used.

[2] = tested on: rat brain PKC; experiment: PepTag non-radioactive PKC kinase activity assay; conditions: FIG. 1; TPA 100-0.01 ng/ml; ether extract final dilution 1 in 5; aqueous layer and crude sap diluted 1/25
Experimental: The kinase activity of rat brain PKC (Promega) was determined using the Peptag™ Non-Radioactive Protein Kinase Kit (Promega). Using agarose gel electrophoresis the technique visualises the opposing electrostatic charge of a fluorescently labeled peptide ([sequence]) compared to the phosphorylated version of the same peptide.
The reaction mixture was separated by gel electrophoresis, showing migration of the unreacted substrate (a) to the anode (top), and the product (b), which is more negatively charged because of phosphorylation by PKC, moving towards the cathode (bottom).

[3] = tested on: Human peripheral blood mononuclear cells (PBMC); experiment: Phagocytic activity of PBMC, nitroblue tetrazolium uptake; format: cell-based; conditions: 100 ng/mL; 20 min; controls <2%
Experimental: Human peripheral blood mononuclear cells (PBMC) prepared by standard Ficoll separation comprise approximately 5% monocytes. PBMC were incubated with dihydroethidium, a reduced form of the dye which becomes fluorescent when oxidized by a respiratory burst, then treated in 10% FCS-RPMI 1640 at 37° C. for 15 min with crude E. peplus extract diluted 1/1000 or 100 ng/mL TPA and analyzed by flow cytometry using conventional methods (Handbook of Flow Cytometry Methods, p. 151) The mean channel numbers for fluorescence were 618 (controls) and 818 (E. peplus extract diluted 1/1000). […] Phagocytic activity was determined by a conventional method (Hudson and Hay, Practical Immunology, 3rd edition, p. 74). […] The average of three fields gave figures of <2% (controls), 10% (TPA) and 8.7% (E. peplus sap) cells stained blue.

[4] = tested on: latently HIV-1 infected cell line (U1); experiment: Activation of latent HIV from U1 cells (p24 ELISA); format: cell-based, HIV-1 LAI strain; conditions: 20 hr, FIG. 7
Excerpt: However, the regimen is very burdensome, requiring strict adherence to prevent a recurrence of viraemia. Long-lived cells […], such as CD4^+ cells, act as a major latent reservoir and enable the virus to avoid anti-retroviral chemotherapy or immune system surveillance. There is, therefore, an urgent need to find an agent which activates latent virus from the infected cells. Activated virus could then be killed by aggressive anti-retroviral chemotherapy and it has been hypothesized that immune system surveillance could also be improved under these conditions. Such an agent could have utility in other disease states in which virus is sequestered in infected cells, e.g. herpes infections. Anti-cancer agents have been widely investigated as potential anti-HIV agents. […] However, PMA is a known tumor promoter. A latently HIV-1 infected cell line (U1), derived from the promonocytic cell line U937 after infection with HIV-1 LAI strain, was used in these experiments. In the absence of activation, no or little virus (measured as p24 production) is produced by the U1 cell line. […]
Supernatants were collected and viral replication monitored by determination of the amounts of HIV p24 gag protein in the culture supernatants by ELISA, using a NEN Life Science HIV-1 p24 ELISA kit. p24 values were calculated from OD values using a standard curve.

[5] = target: T1, PKCα (Homo sapiens, UniProt P17252); format: cell-based; conditions: HeLa
T1 construct: host or cells: HeLa cells
Experimental: Five EGFP-PKC isoforms (Clontech) were available for this experiment, enabling the screening of the three predominant PKC families (i.e. classical, novel and atypical PKCs). The members of the various PKC families are α, β, and γ (classical), θ (novel) and ζ (atypical).
HeLa cells were plated out in a 24-well plate containing coverslips and transfected with PKC isoforms fused to EGFP, using a commercially available effectine-transfection kit (QIAGEN, Pty. Ltd.). Cells were exposed to the transfection reagents for 16-24 hr. Subsequently, transfected cells were treated for one hour with TPA (100 ng/mL), bryostatin-1 (5 pg/mL), PEP003 (2.25 μg/mL; 5 μM) or PEP005 ([…]) 1.5 μM). Following treatment, cells were fixed on coverslips and mounted on glass slides. The slides were subsequently examined visually by fluorescence microscopy, photographed, and over 150 cells were counted/treatment/PKC isoform. Counted cells were classified according to the localisation of the PKC-EGFP fluorescence as either cytoplasmic or plasma membrane using ImagePro™ 4.1 (FIG. 5). […] The number of these cells was also counted.

[6] = tested on: HIV-strain pNL4-3; experiment: HIV-1 replication in acutely infected PBMC (CA-p24 ELISA); format: cell-based
Experimental: Experiments were conducted to assess the effect of the compounds of the instant invention on HIV-1 replication in acutely infected T cells. Peripheral blood mononuclear cells (PBMC) were obtained from non-HIV-1, non-HIV-2, non-Hepatitis B/C infected donors, stimulated with phytohemagglutinin-M and grown in culture media supplemented with 10 U/mL interleukin-2. The activated PBMC were infected with […] (Low Titre) and 100 ng (High Titre) of CA-p24 equivalents of the HIV-strain pNL4-3. Cells were infected for two hr after which, the virus was removed and the cells were washed with culture media. Equivalent numbers of cells were seeded into 24 well plates and compounds were added to the cultured cells that included: TPA at 8 riM and 80 nM, Ingenol at 280 nM, PEP003 at 500 nM, 50 nM and 5 nM, or PEP004 at dilutions of 1×10^4 and 1×10^5 from the stock (final concentrations). In addition, uninfected activated PBMC were grown in the presence of TPA (80 nM), Ingenol (280 nM), PEP003 (500 nM) and PEP004 (1×10^4 dilution). Other cultures were neither infected nor treated with any compound, or infected but not treated with any compound. Supernatant was removed from each culture at day 0, 3, 7, and 10. The amount of HIV-1 CA-p24 was determined using a commercially available ELISA assay. Three independent experiments were performed.

[7] = tested on: peripheral blood mononuclear cells (PBMCs); experiment: Phagocytosis with fluorescent beads; format: cell-based; conditions: whole heparinized blood, 30 min at 37° C.
Experimental: Phagocytosis by peripheral blood mononuclear cells (PBMCs) was assayed (Steinkamp et al., 1982) using 1 μm Fluoresbrite™ yellow-green fluorescent latex spheres (Polysciences, Inc., Warrington, Pa.). A sample of whole, heparinized blood was treated with drug and 5×10E7 fluorescent latex beads in 10 μL of PBS added per mL of suspension. Cells were incubated and maintained in suspension for 30 min by means of a shaker platform at 37° C. The stirnulated and non-stimulated samples were then lysed to isolate PBMCs. The PBMCs were run on the flow cytometer measuring FITC (excitation at 488 nm, emission at 525±20 nm), gated for fluorescence (phagocytosed spheres) and light scatter (cell size).

SMILES: CCCCCCCCCCCCCC(=O)O[C@@H]1[C@@H](C)[C@@]2(O)[C@@H](C=C(CO)C[C@]3(O)C(=O)C(C)=C[C@@H]23)C2C(C)(C)[C@@]21OC(C)=O (single isomer, unassigned) [TPA]
- induction of VCA in MutuI cells [1]: TPA did not
- activation of PKC (phosphorylation of fluorescent PepTag substrate) [2]: showed activation of PKC
- cells stained blue (NBT) [3]: 10%
- activation of HIV from U1 cells (p24 production) [4]: activated HIV from U1 cells
- number of PKCα transfected cells displaying Golgi-like fluorescence ([5]; one hour treatment): increase in the number of cells displaying Golgi-like fluorescence
- translocation of PKCα to the plasma membrane ([5]; one hour, TPA 100 ng/mL, bryostatin-1 5 pg/mL, PEP003 2.25 μg/mL (5 μM)): translocated from the cytoplasm to the plasma membrane
- reduction of HIV-1 replication rate ([6]; 8 nM): ~38%
- reduction of HIV-1 replication rate ([6]; 80 nM): ~98%
- stimulation of phagocytosis of fluorescent latex beads [7]: stimulate phagocytosis in PBMCs

Reference: patent publication US20030195168A1, “Therapeutic agents - III” (priority 2000, published 2003)
